According to patent publication US20100168137A1, “COMBINATION FOR USE IN THE TREATMENT OF INFLAMMATORY DISORDERS” (priority 2006, published 2010):

Assays:
[1] = test system: Macrophage inflammatory protein-2 (MIP-2), also designated chemokine (C-X-C motif) ligand 2 (CXCL2); assay: MIP-2 gene expression (microarray) in balloon-injured rat carotid artery; assay type: in vivo; conditions: for effect on MIP-2 gene expression (in words): 5 mg/kg of each drug s.c. 60 minutes before injury, 8 hours after injury, versus saline control; for mean MIP-2 signal intensity: male Sprague-Dawley rats, 5 mg/kg of each drug s.c. 60 minutes before carotid balloon injury, tissue taken 8 hours after injury, 3 rats per group, saline control 203
MonoMac-6 (MM6) cells = assay: MonoMac-6 macrophage proliferation (WST-1 reagent); assay type: cell-based, human; conditions: 48 hours; for inhibitory effect on MM6 proliferation at 10 μM (in words): WST-1, n=5, data not shown; for inhibition at 100 µM: Homo sapiens, MONO-MAC-6, 100 μM final concentration of each drug, WST-1, mean value n=5, versus untreated cells
Experimental: Cells from the human macrophage cell-line MonoMac-6 (MM6) (Ziegler-Heitbrock et al, Int. J. Cancer, 41, 456 (1988)) were cultured (37° C./5% CO2) in RPMI-1640 medium supplemented with 1 mM sodium pyruvate, 1×nonessential amino acids, 1-100 μg/mL insulin, 1 mM oxalacetic acid, 100 units/mL penicillin, 100 μg/mL streptomycin and 10% (v/v) fetal bovine serum. At the start of the experiment, MM6 cells were seeded in 96-well plates at a density of 1×10^5 cells/mL (100 μl per well). Proliferation of the MM6 cells was measured using the Cell Proliferation Reagent WST-1 (Roche Diagnostics Scandinavia AB, Bromma, Sweden) or by cell counting using a microscope. The WST-1 reagent is designed to be used for spectrophotometric quantification of e.g. cell growth in proliferation assays and was used according to the manufacturers' instructions. […] Stock solutions of pemirolast (potassium salt purchased from American Custom Chemicals Corporation, San Diego, USA) and ramatroban (purchased from Cayman Chemical, Ann Arbor, Mich., USA as free acid and transferred into sodium salt by adding one equivalent of aqueous NaOH) were made in sterile saline.
The effects of pemirolast and/or ramatroban (added at the start of the experiments) on MM6 cell proliferation were studied 48 hours after start of the experiments using the WST-1 reagent described above.

[2] = test system: Platelet derived growth factor, alpha (PDGFa); assay: PDGFa gene expression (microarray) in balloon-injured rat carotid artery; assay type: in vivo; conditions: for effect on PDGFa gene expression (in words): 5 mg/kg of each drug s.c. 60 minutes before injury, 8 hours after injury, versus saline control; for mean PDGFa signal intensity: male Sprague-Dawley rats, 5 mg/kg of each drug s.c. 60 minutes before carotid balloon injury, tissue taken 8 hours after injury, 3 rats per group, saline control 528

O=C(O)CCn1c2c(c3ccccc31)C[C@H](NS(=O)(=O)c1ccc(F)cc1)CC2 [ramatroban]
effect on MIP-2 gene expression (in words) [1]: did not reduce MIP-2 gene expression levels
mean MIP-2 signal intensity [1]: 326
inhibitory effect on MM6 proliferation at 10 μM (in words) (MonoMac-6 (MM6) cells): less that that of 100 μM of ramatroban
inhibition at 100 µM (MonoMac-6 (MM6) cells): 16.8%
effect on PDGFa gene expression (in words) [2]: did not reduce PDGFa gene expression levels
mean PDGFa signal intensity [2]: 566

Cc1cccn2c(=O)c(-c3nnn[nH]3)cnc12 [pemirolast]
effect on MIP-2 gene expression (in words) [1]: did not reduce MIP-2 gene expression levels
mean MIP-2 signal intensity [1]: 710
inhibitory effect on MM6 proliferation at 10 μM (in words) (MonoMac-6 (MM6) cells): very similar to that of 100 μM of pemirolast
inhibition at 100 µM (MonoMac-6 (MM6) cells): 9.4%
effect on PDGFa gene expression (in words) [2]: did not reduce PDGFa gene expression levels
mean PDGFa signal intensity [2]: 800
